Laboratory results reported in patent US11999697B2, “Methods and compositions for inhibition of dihydroorotate dehydrogenase” (OHIO STATE INNOVATION FOUNDATION, priority 2018, dated 2024).
Structures can show the parent of a compound that is named as a salt.

Columns and labels:
[1] = tested on: IDH2-R140Q/Flt3-ITD spleen cells (murine AML); experiment: IDH2-R140Q/Flt3-ITD adoptive transfer model; type: in vivo, NCG mice; details: daily oral gavage; Cpd3 50 mg/kg, enasidenib 100 mg/kg
From the text: Leukemic cells derived from a spontaneous murine model of Idh2/Flt3 AML, as reported by Shih et al (Cancer Discov. 7(5):494-505), were engrafted via adoptive transfer to generate an aggressive model of AML suitable for testing of therapeutic agents. Briefly, 6-8 week old mice harboring a heterozygous internal tandem duplication of FMS-like tyrosine kinase 3 (Flt3-ITD), a heterozygous point mutation of isocitrate dehydrogenase 2 (Idh2-R140Q) preceeded by a loxP flanked STOP codon, and Cre recombinase under the MX dynamin like GTPase 1 (Mx1) promoter were injected i.p. with polyinosinic:polycytidylic acid (poly(I:C)), activating Cre recombinase and inducing hematopoietic-specific expression of the Idh2-R140Q mutation. Spleen cells from these mice were collected after the development of lethal AML (defined by study removal criteria), typically 8-14 months post-poly(I:C) injection. 1×10^5 spleen cells from a single leukemic donor were engrafted by tail vein injection into 6 week old immune deficient NOD-Prkdc^em26Cd52//2rg^em26Cd22/NjuCrl mice (NCG; Charles River). At one week post-engraftment, animals were randomized to vehicle (5% EtOH, 10% Kolliphor EL, in PBS), enasidenib (100 mg/kg), and HOSU-3 (50 mg/kg) treatment arms and dosed by daily oral gavage. Personnel responsible for animal monitoring, dosing, and decisions regarding euthanasia were blinded to treatment arms. Survival was assessed using Kaplan-Meier analysis and p-values were determined using the log-rank test and adjusted using Holm's method.

[2] = tested on: AML cell lines (MOLM13, MV4-11, THP1, HL-60, and OCI-AML3)
Experimental: MTS assay for cell growth/viability: Mitochondrial activity was measured to determine cell proliferation using an MTS assay (tetrazolium dye 3′[4,5-dimethylthiazol-2-yl]-2,5-diphenyl-tetrazolium bromide). Metabolically active cells convert MTS tetrazolium salt into a purple formazan product that is soluble in tissue culture medium. The amount of formazan measured at 490 nm absorbance is proportional to the number of proliferating cells. […] Triplicate wells were set up for each condition. At 96 hours, the MTS reagent was added and after approximately 4 hours the plates were read in a spectrophotometer. MTS assays in primary AML cells were done in a similar manner as the cell lines with the following changes: 100K cells were plated per well, and the MTS was done in the presence of an HS5 stromal cell line to support the in vitro growth of the primary cells. Primary cells were incubated with MTS for approximately 8-12 hours (varies with the samples) before reading the absorbance.
Cell proliferation assays were carried out using the MTS assay described herein using five AML cell lines (i.e., MOLM13, MV4-11, THP1, HL-60, and OCI-AML3) with varied genetic backgrounds. The assays were carried out in a blinded fashion.

Row | Structure (SMILES) | Median survival [1] [days] | cytotoxicity compared to the free acid form and brequinar [2]
1 | CC(C)(O)CNc1nc(Nc2ccnc(C(F)(F)F)c2)nc(-c2cccc(C(F)(F)F)n2)n1 [Enasidenib, reference compound] | 34 | 
2 | CCOc1ccc(-c2ccc(-c3cc(C(=O)O)c4cc(F)ccc4n3)cc2)cc1 [sodium salt form of Cpd3, Sodium 2-(4′-Ethoxy-[1,1′-biphenyl]-4-yl)-6-fluoroquinoline-4-carboxylate] |  | equally cytotoxic against AML cell lines
